Source: patent publication US20060089325A1, “Antisense modulation of PTP1B expression” (priority 2004, published 2006)
Read-outs that look alike come from different tables or passages of the source.

What was measured:
[1] = rat, in vivo
PTP1B protein = PTP1B protein levels in ZDF rats (Western blot); format: in vivo, rat; details: 25 mg/kg ip twice weekly four weeks
Experimental: (§1) ZDF/GmiCrl-fa/fa (ZDF) male rats were purchased from Charles River Laboratories (Wilmington, Mass., USA). Six week old ZDF male rats were injected intraperitoneally with oligonucleotides at a dose of 25 mg/kg two times per week for four weeks. […] Saline-injected animals also serve as controls.
PTP1B protein levels were measured by Western blot analysis.

PTP1B = PTP1B protein in HEPG2 cells (Western blot); format: cell-based, human; details: 150 nM, vs no oligo treatment
Experimental: (§2) There is a high degree of homology between PTP1B and T-cell phosphatase (TC-PTPase, PTPN2), particularly in the catalytic domain. This may present problems in design of small molecule drugs specific for PTP1B. […] HEPG2 human hepatocellular liver carcinoma cells (ATCC, Manassas Va.) are routinely maintained in minimum essential medium (Eagle) with 2 mM L-glutamine and Earle's BSS adjusted to contain 1.5 g/L sodium bicarbonate, 0.1 mM non-essential amino acids, and 1.0 mM sodium pyruvate, […]; fetal bovine serum.
(§3) Levels of PTP1B and TC-PTPase protein were measured by Western blot using mouse monoclonal antibodies to PTP1B (AB-1) and TC-PTPase (AB-1) (CalBiochem/Oncogene sciences, EMD Biosciences, Inc., San Diego Calif.), which specifically identified human target proteins and were used at 0.25 ug/ml. Results were expressed as percent of control (no oligo treatment).

TC-PTPase = TC-PTPase protein in HEPG2 cells (Western blot), specificity; format: cell-based, human; details: 150 nM, vs no oligo treatment
Experimental: as §2, §3

[2] = system: Zucker diabetic fatty (ZDF) rats; assay: Intraperitoneal glucose tolerance test (IPGTT) in ZDF rats; format: in vivo, rat; details: for Blood glucose after IPGTT (± SEM) / Insulin excursion after IPGTT (± SEM): 25 mg/kg ip twice weekly
Experimental: as §1
An intraperitoneal glucose tolerance test (IPGTT) was also performed. Rats received intraperitoneal injections of glucose, and the blood glucose and insulin levels are measured before the glucose challenge and at intervals over 2 hours. The blood glucose levels (in mg/dL) are shown below in Table 1:
The blood glucose levels shown in Table 1 were graphed over time and the area under the curve (AUC) is calculated. A smaller AUC for glucose (smaller blood glucose excursion after glucose challenge) indicates better glucose tolerance. Glucose excursion (AUC) for saline-treated rats was approximately 72,000; for negative control ISIS 141923-treated rats, approximately 80,000, for ISIS 113715-treated rats, approximately 60,000 and for ISIS 106425-treated rats, approximately 63,000.

[3] = system: Zucker diabetic fatty (ZDF) rats; assay: Fed plasma glucose in Zucker diabetic fatty (ZDF) rats; format: in vivo, rat; details: 25 mg/kg ip two times per week
From the text: The leptin receptor deficient Zucker diabetic fatty (ZDF) rat is another useful model for the investigation of type 2 diabetes. Diabetes develops spontaneously in these male rats at ages 8-10 weeks, and is associated with hyperphagia, polyuria, polydipsia, and impaired weight gain, symptoms which parallel the clinical symptoms of diabetes (Phillips M S, et al., 1996, Nat Genet 13, 18-19).
as §1

[4] = system: Zucker diabetic fatty (ZDF) rats; assay: ZDF rats, comparison to rosiglitazone and metformin: blood glucose, HbA1c, meal tolerance, body weight; format: in vivo, rat; details: for HbA1c: end of study (5 weeks), saline ZDF 9.2%, lean 5.5
Experimental: A saline treated group of lean rats was also included in the study. Treatment with all drugs was initiated before the rats became frankly diabetic, which occurs at about 8 weeks of age. Plasma glucose levels were measured 3 and 5 weeks after treatment initiation. Body weight was measured once every week; in addition, HbA1c levels were measured at the end of the study by HPLC. A meal tolerance test was also performed after 4 weeks of treatment.
At the end of 5 weeks, some rats were sacrificed and the liver and epididymal fat pads were removed. The rest of the animals (n=4/group) were examined for changes in plasma glucose levels after cessation of treatment. Glucose measurements during the recovery phase were made 10 days and 5 weeks after stopping treatment. Tissue extracts were subjected to Western blot analysis to measure changes in PTP1B protein levels.

[5] = system: Zucker Diabetic Fatty Rats; assay: Combination of ISIS 113715 and metformin in ZDF rats: plasma glucose (Table 18); format: in vivo, rat
Experimental: 500 mg/kg is the maximally effective dose that can be tolerated by these rats. Plasma glucose was measured at week 0 (before treatment) and after weeks 1, 2 and 4 of treatment.

[6] = Metformin combination in ZDF rats: hypoglycemia, AST/ALT, lipids, plasma lactate; format: in vivo, rat; details: after 4 weeks of treatment
Experimental: 500 mg/kg is the maximally effective dose that can be tolerated by these rats.
There was no significant change in AST/ALT, plasma triglyceride or plasma cholesterol levels in any animal group. Because of the risk of lactic acidosis associated with metformin treatment, plasma lactate levels were measured.

[7] = system: Zucker diabetic fatty (ZDF) rats; assay: ZDF rats, comparison to rosiglitazone and metformin: blood glucose, HbA1c, meal tolerance, body weight; format: in vivo, rat; details: 31 day washout after 5 weeks of treatment
[8] = AST/ALT and plasma cholesterol in aged ZDF rats; details: weeks 1, 2, 3, 4 and 5
[9] = 10 day washout after 5 weeks of treatment
[10] = Week 3 of dosing, ISIS 113715 50 mg/kg/week ip, rosiglitazone 10 mg/kg/day, metformin 800 mg/kg/day orally

ISIS 141923: CCTTCCCTGAAGGTTCCTCC (SEQ ID NO: 20), six-mismatch control of ISIS 113715, negative oligonucleotide control (chemistry not given here)
AST/ALT [1]: no significant effects | Plasma cholesterol levels [1]: no significant effects | PTP1B protein levels, decrease vs saline-treated animals (PTP1B protein): 10% | Reduction of PTP1B protein levels (PTP1B): reduced neither PTP1B nor TC-PTPase levels | Reduction of TC-PTPase levels (TC-PTPase): reduced neither PTP1B nor TC-PTPase levels | Blood glucose after IPGTT (± SEM) ([2]; 0 min): 330 ± 39 mg/dL | Insulin excursion after IPGTT (± SEM) ([2]; 0 min): 2.2 ± .30 ng/mL | Blood glucose after IPGTT (± SEM) ([2]; 5 min): 543 ± 43 mg/dL | Insulin excursion after IPGTT (± SEM) ([2]; 5 min): 2.3 ± .84 ng/mL | Blood glucose after IPGTT (± SEM) ([2]; 15 min): 703 ± 60 mg/dL | Insulin excursion after IPGTT (± SEM) ([2]; 15 min): 4.0 ± .22 ng/mL | Blood glucose after IPGTT (± SEM) ([2]; 30 min): 791 ± 52 mg/dL | Insulin excursion after IPGTT (± SEM) ([2]; 30 min): 4.2 ± .37 ng/mL | Blood glucose after IPGTT (± SEM) ([2]; 60 min): 705 ± 51 mg/dL | Insulin excursion after IPGTT (± SEM) ([2]; 60 min): 2.4 ± .66 ng/mL | Blood glucose after IPGTT (± SEM) ([2]; 120 min): 594 ± 28 mg/dL | Insulin excursion after IPGTT (± SEM) ([2]; 120 min): 1.7 ± .60 ng/mL | Insulin AUC after IPGTT ([2]; saline approximately 300): ~320 | Glucose excursion (AUC) after IPGTT ([2]; saline approximately 72,000): approximately 80,000 | Fed plasma glucose levels ([3]; week 0): approximately 306±59 mg/dL | Fed plasma glucose levels ([3]; week 1): ~391 ± 35 mg/dL | Fed plasma glucose levels ([3]; week 2): ~402 ± 37 mg/dL | Fed plasma glucose levels ([3]; week 3): ~411 ± 27 mg/dL | Fed plasma glucose levels ([3]; week 4): ~392 ± 11 mg/dL

CN(C)C(=N)N=C(N)N [Metformin]
Body weight after treatment ([4]; 5 weeks): remained unchanged | Blood glucose (approx.) [4, 9]: ~305 mg/dL | Blood glucose (approx.) ([4]; Pre-treatment): ~135 mg/dL | Blood glucose (approx.) [4, 10]: ~180 mg/dL | HbA1c [4]: 6.1% | Effect on blood glucose over the study (in words) ([5]; ISIS 113715 12.5 mg/kg ip twice a week, metformin 100, 300 or 500 mg/kg per day, four weeks): lost over time | Plasma glucose mg/dL ± SEM ([5]; metformin alone 100 mg/kg per day oral gavage, Week 0 (before treatment)): 256 ± 29 mg/dL | Plasma glucose mg/dL ± SEM ([5]; metformin alone 100 mg/kg per day oral gavage, Week 1): 428 ± 20 mg/dL | Plasma glucose mg/dL ± SEM ([5]; metformin alone 100 mg/kg per day oral gavage, Week 2): 504 ± 20 mg/dL | Plasma glucose mg/dL ± SEM ([5]; metformin alone 100 mg/kg per day oral gavage, Week 3): 494 ± 18 mg/dL | Plasma glucose mg/dL ± SEM ([5]; metformin alone 100 mg/kg per day oral gavage, Week 4): 393 ± 71 mg/dL | Plasma glucose mg/dL ± SEM ([5]; metformin alone 300 mg/kg per day oral gavage, Week 0 (before treatment)): 251 ± 27 mg/dL | Plasma glucose mg/dL ± SEM ([5]; metformin alone 300 mg/kg per day oral gavage, Week 1): 323 ± 33 mg/dL | Plasma glucose mg/dL ± SEM ([5]; metformin alone 300 mg/kg per day oral gavage, Week 2): 415 ± 29 mg/dL | Plasma glucose mg/dL ± SEM ([5]; metformin alone 300 mg/kg per day oral gavage, Week 3): 449 ± 11 mg/dL | Plasma glucose mg/dL ± SEM ([5]; metformin alone 300 mg/kg per day oral gavage, Week 4): 448 ± 42 mg/dL | Plasma glucose mg/dL ± SEM ([5]; metformin alone 500 mg/kg per day oral gavage, Week 0 (before treatment)): 252 ± 28 mg/dL | Plasma glucose mg/dL ± SEM ([5]; metformin alone 500 mg/kg per day oral gavage, Week 1): 244 ± 56 mg/dL | Plasma glucose mg/dL ± SEM ([5]; metformin alone 500 mg/kg per day oral gavage, Week 2): 344 ± 59 mg/dL | Plasma glucose mg/dL ± SEM ([5]; metformin alone 500 mg/kg per day oral gavage, Week 3): 374 ± 53 mg/dL | Plasma glucose mg/dL ± SEM ([5]; metformin alone 500 mg/kg per day oral gavage, Week 4): 443 ± 35 mg/dL | Plasma lactate levels [6]: dose-dependent increase in lactate | Blood glucose (approx.) [7]: ~330 mg/dL

CN(CCOc1ccc(CC2SC(=O)NC2=O)cc1)c1ccccn1 (centres unmarked) [Rosiglitazone]
Blood glucose (approx.) [4, 9]: ~260 mg/dL | Blood glucose (approx.) ([4]; Pre-treatment): ~140 mg/dL | Blood glucose (approx.) [4, 10]: ~110 mg/dL | HbA1c [4]: 5.4% | Plasma cholesterol levels [8]: no significant effects | Blood glucose (approx.) [7]: ~270 mg/dL
